Experimental data: patent US8796282B2, “Method of treating dermatological disorders” (Case Western Reserve University, priority 2007, dated 2014)

Legend:
[1] = tested on: PEX genes (PEX3, PEX16, PMP22); assay: PEX (peroxisomal) gene expression in a human keratocyte cell line / cultured human keratinocytes exposed to PPARγ agonists; assay type: cell-based; settings: for expression of peroxisomal genes (PEX3, PEX16, PMP22): qualitative statement, cultured human keratinocytes
Method: (§1) Quantitative real-time RT-PCR. FAM labeled PCR primers and TaqMan hydrolysis probes for all target genes and 18S rRNA were purchased from Perkin-Elmer Applied Biosystems (Foster City, Calif.). Real-time PCR was performed on an ABI Prism 7700 Sequence Detection System (PE Biosystems) according to the recommendation of the manufacturer. The target gene expression in LPP and control samples was quantitated by the comparative CT method as described in the ABI Prism 7700 Sequence Detection System manual (PE Biosystems).
(§2) Effect of PPARg agonists and antagonists on PEXgenes. Human Hair Follicle Outer Root Sheath Cells (ORS cells) were obtained from ScienCell™ (San Diego, Calif.) and grown in Mesenchymal Stem Cell Medium (MSCM) consisting of 500 ml of basal medium, 25 ml of fetal bovine serum, 5 ml of mesenchymal stem cell growth supplement and 5 ml of penicillin/streptomycin solution. HaCaT cells were cultured in Dulbecco's modified Eagle's medium containing 10% fetal bovine serum under 5% CO2 at 37° C. The different PPAR agonists were added in triplicate in dimethylsulfoxide (<0.1% by volume) for 48 hours to evaluate their effects on PEX gene expression by real-time PCR.

PEX3 gene expression = PEX3 gene expression in cultured outer root sheath (ORS) keratinocytes treated with PPAR agonists, real-time PCR; assay type: cell-based, human; settings: for effect on PEX3 gene expression: cultured outer root sheath keratinocytes
Method: (§3) HaCaT keratinocytes were treated with vehicle alone (0.1% DMSO) or with specific agonists (1 μM and 5 μM in 0.1% DMSO) of PPARγ-Ciglitazone (Cig), Rosiglitazone (Rosi), Pioglitazone (Pio) and Troglitazone (Tro), PPARα-WY-14363 and PPARδ-GW50516. After 48 hours, PEX16 gene expression was measured by real-time PCR.
(§4) We directly assessed the role of PPARγ in modulating peroxisomal gene expression by growing HaCat cells (human keratinocyte cell line) in the presence of PPAR agonists (1 μM and 5 μM concentrations in 0.1% DMSO) and monitoring gene expression by real-time PCR (FIG. 5b). The agonists tested were Ciglitazone (Cig), Rosiglitazone (Rosi), Pioglitazone (Pio) and Troglitazone (Tro) specific for PPARγ, WY-14363 specific for PPARα and GW50516 specific for PPARδ. […] We also examined whether expression of the PEX3 gene is modulated by the PPAR agonist Pioglitazone (Pio) in cultured outer root sheath keratinocytes. Cells were grown in the presence or absence of Pio and PEX3 gene expression was monitored by real-time PCR.
as §1
as §2, with “The different PPAR agonists were added in triplicate in dimethylsulfoxide (<0.1% by volume) for 48 hours to evaluate their effects on PEX gene expression by real-time PCR.” left out

Patients with LLP = assay: Treatment of patients with lichen planopilaris with low dose Actos; assay type: in vivo, human; settings: for inflammatory cells in scalp biopsy histology: one patient, H&E
Method: Patients were treated with Actos (Pioglitazone), a PPARγ agonist that is currently used to treat diabetes. Patients with LLP were given a low dose of Actos, i.e., less than about 15 mg/daily. […] The histology of scalp biopsy of one of the patients before, after one year of treatment, and after two years of treatment are shown in FIGS. 18-20. […] Therefore, PPAR agonist is effective in reducing symptoms.

PEX16 gene expression = PEX16 gene expression in HaCaT keratinocytes treated with PPAR agonists, real-time PCR; assay type: cell-based, human; settings: HaCaT cells, 1 μM and 5 μM in 0.1% DMSO, 48 hours
Method: as §3, §4
Quantitative real-time RT-PCR. […] The target gene expression in LPP and control samples was quantitated by the comparative CT method as described in the ABI Prism 7700 Sequence Detection System manual (PE Biosystems). […]

SMILES | expression of peroxisomal genes (PEX3, PEX16, PMP22) [1] | effect on PEX 16 gene expression (PEX16 gene expression) | effect on PEX3 gene expression (PEX3 gene expression) | further results
CC1(COc2ccc(CC3SC(=O)NC3=O)cc2)CCCCC1 (stereo not shown) [Ciglitazone, 5-[4-[(1-methylcyclohexyl)methoxy]benzyl]thiazolidine-2,4-dione] | induce the expression |  |  | 
Cc1c(C)c2c(c(C)c1O)CCC(C)(COc1ccc(CC3SC(=O)NC3=O)cc1)O2 (single isomer, unassigned; (+)) [Troglitazone, (+)-5[[4-[(3,4-dihydro-6-hydroxy-2,5,7,8-tetramethyl-2H-1-benzopyran-2-yl)methoxy]phenyl]methyl]-2,4-thiazolidinedione] | induce the expression |  |  | 
CCc1ccc(CCOc2ccc(CC3SC(=O)NC3=O)cc2)nc1 (stereo not shown) [Pioglitazone, 5-[4-[2-(5-ethylpyridin-2-yl)ethoxyl]benzyl]thiazolidine-2,4-dione] | induce the expression |  |  | increase in PEX3 gene expression (PEX3 gene expression; outer root sheath keratinocytes, 1 μM, compared to vehicle alone (0.1% DMSO)): 4 fold; itching, burning and pain associated with lichen planopilaries (Patients with LLP; LLP patients, less than about 15 mg/daily, patient-reported): significant decrease; inflammatory cells in scalp biopsy histology (Patients with LLP; after 1 year of treatment): Reduction is already seen; inflammatory cells in scalp biopsy histology (Patients with LLP; at two years of treatment): complete clearing of inflammatory cells
Cc1cc(SCc2sc(-c3ccc(C(F)(F)F)cc3)nc2C)ccc1OCC(=O)O [GW50516] |  | minimal effect | minimal effect | 
CN(CCOc1ccc(CC2SC(=O)NC2=O)cc1)c1ccccn1 (stereo not shown) [Rosiglitazone, 5-[4-[2-(N-methyl-N-(2-pyridyl)amino]ethoxy]benzyl]thiazolidine-2,4-dione] | induces the expression |  |  | increase in PEX gene expression ([1]; human keratocyte cell line): three-fold increase
Cc1cccc(Nc2cc(Cl)nc(SCC(=O)O)n2)c1C [WY-14363] |  | minimal effect | minimal effect | 
